From the supplement of paper PMC10307832

Columns and labels:
Assay in all cases: relative viability (nuclei count vs DMSO), 5 days (fraction); higher = more cells survive
YM155 + Luminespib = compound: COCC[n+]1c2c(n(Cc3cnccn3)c1C)C(=O)c1ccccc1C2=O [YM155] + CCNC(=O)c1noc(-c2cc(C(C)C)c(O)cc2O)c1-c1ccc(CN2CCOCC2)cc1 [Luminespib] (partner 0.01 µM)
In short: (§1)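 One day after seeding in 1536-well plates, lung cancer cell lines were dosed by pin tool. Dosing was either single-drug or a fixed anchor-drug dose plus five library-drug doses (not always all listed) in √10 steps. After 5 days, nuclei were stained in one fix-and-stain step and counted on 4× images, and relative viability is the nuclei count of treated wells over that of vehicle wells, given as the median of duplicate plates.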

YM155 + Navitoclax = compound: COCC[n+]1c2c(n(Cc3cnccn3)c1C)C(=O)c1ccccc1C2=O [YM155] + CC1(C)CCC(c2ccc(Cl)cc2)=C(CN2CCN(c3ccc(C(=O)NS(=O)(=O)c4ccc(N[C@H](CCN5CCOCC5)CSc5ccccc5)c(S(=O)(=O)C(F)(F)F)c4)cc3)CC2)C1 [Navitoclax] (partner 0.5 µM)
In short: as §1

YM155 + Dasatinib = compound: COCC[n+]1c2c(n(Cc3cnccn3)c1C)C(=O)c1ccccc1C2=O [YM155] + Cc1nc(Nc2ncc(C(=O)Nc3c(C)cccc3Cl)s2)cc(N2CCN(CCO)CC2)n1 [Dasatinib] (partner 0.075 µM)
In short: as §1

Quizartinib + Crizotinib = compound: CC(C)(C)c1cc(NC(=O)Nc2ccc(-c3cn4c(n3)sc3cc(OCCN5CCOCC5)ccc34)cc2)no1 [Quizartinib] + C[C@@H](Oc1cc(-c2cnn(C3CCNCC3)c2)cnc1N)c1c(Cl)ccc(F)c1Cl [Crizotinib] (partner 1 µM)
In short: as §1

Row | Cell Line | relative viability (YM155 + Luminespib; first compound 0.002 µM) | relative viability (YM155 + Luminespib; first compound 0.006325 µM) | relative viability (YM155 + Luminespib; first compound 0.02 µM) | relative viability (YM155 + Luminespib; first compound 0.06325 µM) | relative viability (YM155 + Navitoclax; first compound 0.002 µM) | relative viability (YM155 + Navitoclax; first compound 0.006325 µM) | relative viability (YM155 + Navitoclax; first compound 0.02 µM) | relative viability (YM155 + Navitoclax; first compound 0.06325 µM) | relative viability (YM155 + Dasatinib; first compound 0.002 µM) | relative viability (YM155 + Dasatinib; first compound 0.006325 µM) | relative viability (YM155 + Dasatinib; first compound 0.02 µM) | relative viability (YM155 + Dasatinib; first compound 0.06325 µM) | relative viability (Quizartinib + Crizotinib; first compound 0.001 µM) | relative viability (Quizartinib + Crizotinib; first compound 0.003162 µM) | relative viability (Quizartinib + Crizotinib; first compound 0.01 µM) | relative viability (Quizartinib + Crizotinib; first compound 0.03162 µM) | relative viability (Quizartinib + Crizotinib; first compound 0.1 µM)
1 | NCI-H2009 | 1.08 | 0.986 | 1.04 | 0.476 | 1.16 | 1.13 | 1.06 | 0.567 | 0.265 | 0.264 | 0.343 | 0.266 | 0.984 | 1.02 | 0.994 | 0.603 | 1
2 | NCI-H2023 | 0.771 | 0.678 | 0.682 | 0.349 | 1.04 | 1.07 | 0.987 | 0.261 | 0.486 | 0.588 | 0.52 | 0.374 | 0.648 | 0.57 | 0.799 | 0.246 | 0.543
3 | NCI-H2085 | 0.406 | 0.474 | 0.338 | 0.369 | 1.06 | 0.989 | 0.99 | 0.674 | 0.287 | 0.224 | 0.23 | 0.211 | 0.745 | 0.795 | 0.998 | 0.833 | 0.836
4 | NCI-H2087 | 0.194 | 0.17 | 0.148 | 0.149 | 1.03 | 0.875 | 0.969 | 0.816 | 0.765 | 0.78 | 0.964 | 0.775 | 0.717 | 0.685 | 0.883 | 0.767 | 0.863
5 | NCI-H2126 | 0.804 | 0.969 | 0.94 | 0.927 | 0.866 | 0.877 | 0.871 | 0.875 | 0.583 | 0.673 | 0.626 | 0.745 | 0.816 | 0.992 | 1.12 | 0.962 | 1.07
6 | NCI-H2170 | 0.525 | 0.751 | 0.647 | 0.596 | 0.545 | 0.572 | 0.524 | 0.692 | 0.485 | 0.628 | 0.572 | 0.625 | 1.15 | 1.11 | 1.17 | 1.2 | 1.19
7 | NCI-H2228 | 0.16 | 0.148 | 0.104 | 0.144 | 1.03 | 0.487 | 0.956 | 0.857 | 0.432 | 0.528 | 0.534 | 0.661 | 0.439 | 0.414 | 0.317 | 0.418 | 0.429
8 | NCI-H2347 | 0.409 | 0.41 | 0.647 | 0.368 | 0.756 | 0.779 | 0.83 | 0.46 | 0.323 | 0.321 | 0.35 | 0.334 | 0.719 | 0.788 | 0.704 | 0.585 | 0.762
9 | NCI-H2405 | 0.65 | 0.778 | 0.639 | 0.393 | 0.891 | 0.602 | 0.699 | 0.226 | 0.191 | 0.22 | 0.206 | 0.21 | 0.791 | 0.89 | 0.946 | 0.803 | 0.925
10 | NCI-H3122 | 0.0874 | 0.123 | 0.0877 | 0.0824 | 0.969 | 1.04 | 1.02 | 1.05 | 0.548 | 0.641 | 0.857 | 0.932 | 0.268 | 0.253 | 0.304 | 0.279 | 0.26
11 | PC-3 [JPC-3] | 0.654 | 0.732 | 0.673 | 0.653 | 0.867 | 0.847 | 0.871 | 0.887 | 0.917 | 1.04 | 1.02 | 1.01 | 0.978 | 0.961 | 1.01 | 0.955 | 0.955
12 | PC-14 | 0.171 | 0.174 | 0.111 | 0.143 | 1.02 | 1.06 | 0.997 | 0.982 | 0.231 | 0.26 | 0.252 | 0.114 | 0.839 | 0.917 | 1.07 | 0.814 | 0.818
13 | RERF-LC-KJ | 1.14 | 1 | 1.18 | 1.15 | 1.04 | 1.07 | 0.974 | 1.06 | 0.755 | 0.836 | 0.851 | 0.78 | 0.8 | 0.596 | 1 | 0.795 | 0.798
14 | SK-LU-1 | 0.183 | 0.185 | 0.21 | 0.223 | 1.05 | 0.559 | 1.27 | 0.418 | 0.215 | 0.175 | 0.185 | 0.206 | 0.797 | 0.785 | 1.23 | 0.781 | 0.914
15 | SK-MES-1 | 0.437 | 0.359 | 0.234 | 0.169 | 1.3 | 1.36 | 1.28 | 1.07 | 0.447 | 0.34 | 0.332 | 0.154 | 0.943 | 0.949 | 1.12 | 0.976 | 0.937
16 | SW 1573 | 0.246 | 0.179 | 0.17 | 0.0748 | 1.05 | 0.959 | 1.04 | 0.555 | 0.446 | 0.474 | 0.133 | 0.0759 | 0.611 | 0.837 | 0.823 | 0.803 | 0.895
17 | UMC-11 | 0.932 | 1.08 | 1 | 1.11 | 0.293 | 0.332 | 0.29 | 0.375 | 0.374 | 0.49 | 0.518 | 0.51 | 0.543 | 0.562 | 0.739 | 0.66 | 0.577
